# Results from ChEMBL document CHEMBL5058649, “Data for DCP probe BAY 1816032” (2022).
# Legend:
# [1] = target: Ephrin type-A receptor 8 (Homo sapiens) (UniProt P29322); test: EPHA8 DiscoveRx kinase panel; details: Compound concentration 1.0 uM
# [2] = target: Glycogen synthase kinase-3 beta (Homo sapiens) (UniProt P49841); test: GSK3B DiscoveRx kinase panel; details: Compound concentration 1.0 uM
# [3] = target: Mitogen-activated protein kinase kinase kinase 9 (Homo sapiens) (UniProt P80192); test: MLK1 DiscoveRx kinase panel; details: Compound concentration 1.0 uM
# [4] = target: Tyrosine-protein kinase JAK3 (Homo sapiens) (UniProt P52333); test: JAK3(JH1domain-catalytic) DiscoveRx kinase panel; details: Compound concentration 1.0 uM
# [5] = target: Calcium/calmodulin-dependent protein kinase type 1D (Homo sapiens) (UniProt Q8IU85); test: CAMK1D DiscoveRx kinase panel; details: Compound concentration 1.0 uM
# [6] = target: Receptor tyrosine-protein kinase erbB-3 (Homo sapiens) (UniProt P21860); test: ERBB3 DiscoveRx kinase panel; details: Compound concentration 1.0 uM
# [7] = target: Mitogen-activated protein kinase kinase kinase 10 (Homo sapiens) (UniProt Q02779); test: MLK2 DiscoveRx kinase panel; details: Compound concentration 1.0 uM
# [8] = target: Alpha-2C adrenergic receptor (Homo sapiens, UniProt P18825); test: GPCRScan assay: inhibition of Alpha2C; set-up: radioligand conc. used [nm] 0.5 – 1.0, parental cells stable MDCK
# [9] = target: D(1B) dopamine receptor (Homo sapiens) (UniProt P21918); details: Compound concentration 10.0 uM
# [10] = target: Proto-oncogene tyrosine-protein kinase receptor Ret (Homo sapiens) (UniProt P07949); test: RET DiscoveRx kinase panel; details: Compound concentration 1.0 uM
# [11] = target: Sodium-dependent serotonin transporter (Homo sapiens) (UniProt P31645); test: Transporter, Serotonin (5- Hydroxytryptamine) (SERT) Eurofins-Panlabs radioligand binding assay; details: Compound concentration 10.0 uM
# [12] = target: Vasopressin V1a receptor (Homo sapiens) (UniProt P37288); test: Vasopressin V1A Eurofins-Panlabs radioligand binding assay; details: Compound concentration 10.0 uM
# [13] = target: Ribosomal protein S6 kinase alpha-6 (Homo sapiens) (UniProt Q9UK32); test: RSK4(Kin.Dom.2-C-terminal) DiscoveRx kinase panel; details: Compound concentration 1.0 uM
# [14] = target: Ephrin type-B receptor 1 (Homo sapiens) (UniProt P54762); test: EPHB1 DiscoveRx kinase panel; details: Compound concentration 1.0 uM
# [15] = target: Serine/threonine-protein kinase ULK3 (Homo sapiens) (UniProt Q6PHR2); test: ULK3 DiscoveRx kinase panel; details: Compound concentration 1.0 uM
# [16] = target: Phosphatidylinositol 4-phosphate 3-kinase C2 domain-containing subunit beta (Homo sapiens) (UniProt O00750); test: PIK3C2B DiscoveRx kinase panel; details: Compound concentration 1.0 uM
# [17] = target: MAO-A (Homo sapiens, UniProt P21397); test: Inhibition of Monoamine Oxidase MAO-A at compound concentration of 10.0 uM in the Eurofins-Panlabs enzyme assay (Eurofins_assay_140010); set-up: substrate with concentration 50 uM Kynuramine, incubation time 60 min, incubation temperature 37 C; details: human recombinant MAO-A expressed in insect Hi5 cells, probe Kynuramine (50 uM), compound concentration 10 uM
# [18] = target: Cannabinoid receptor 2 (Homo sapiens) (UniProt P34972); details: Compound concentration 10.0 uM
# [19] = target: Mitogen-activated protein kinase 1 (Homo sapiens) (UniProt P28482); test: ERK2 DiscoveRx kinase panel; details: Compound concentration 1.0 uM
# [20] = target: MAP kinase-interacting serine/threonine-protein kinase 1 (Homo sapiens) (UniProt Q9BUB5); test: MKNK1 DiscoveRx kinase panel; details: Compound concentration 1.0 uM
# [21] = target: Serine/threonine-protein kinase tousled-like 1 (Homo sapiens) (UniProt Q9UKI8); test: TLK1 DiscoveRx kinase panel; details: Compound concentration 1.0 uM
# [22] = target: Gastrin/cholecystokinin type B receptor (Homo sapiens) (UniProt P32239); test: Cholecystokinin CCK2 (CCKB) Eurofins-Panlabs radioligand binding assay; details: Compound concentration 10.0 uM
# [23] = target: Peripheral plasma membrane protein CASK (Homo sapiens) (UniProt O14936); test: CASK DiscoveRx kinase panel; details: Compound concentration 1.0 uM
# [24] = target: Protein kinase C epsilon type (Homo sapiens) (UniProt Q02156); test: PRKCE DiscoveRx kinase panel; details: Compound concentration 1.0 uM
# [25] = target: Cysteinyl leukotriene receptor 1 (Homo sapiens) (UniProt Q9Y271); test: Inhibition of Leukotriene, Cysteinyl CysLT1 at 10 µM in the Eurofins-Panlabs radioligand binding assay (Eurofins_assay_250460); set-up: ligand concentration 0.3 nM, non-specific ligand with concentration 0.3 µM Leukotriene D4, incubation time 30 min, incubation temperature 25 °C; details: Compound concentration 10.0 uM
# [26] = target: Mu-type opioid receptor (Homo sapiens) (UniProt P35372); details: Compound concentration 10.0 uM
# [27] = target: Serine/threonine-protein kinase RIO2 (Homo sapiens) (UniProt Q9BVS4); test: RIOK2 DiscoveRx kinase panel; details: Compound concentration 1.0 uM
# [28] = target: Tyrosine-protein kinase Lyn (Homo sapiens) (UniProt P07948); test: LYN DiscoveRx kinase panel; details: Compound concentration 1.0 uM
# [29] = target: Ribosomal protein S6 kinase alpha-5 (Homo sapiens) (UniProt O75582); test: RPS6KA5(Kin.Dom.1-N-terminal) DiscoveRx kinase panel; details: Compound concentration 1.0 uM
# [30] = target: 5-hydroxytryptamine receptor 2B (Homo sapiens) (UniProt P41595); details: Compound concentration 10.0 uM
# [31] = target: RAC-beta serine/threonine-protein kinase (Homo sapiens) (UniProt P31751); test: AKT2 DiscoveRx kinase panel; details: Compound concentration 1.0 uM
# [32] = target: Ribosomal protein S6 kinase alpha-2 (Homo sapiens) (UniProt Q15349); test: RSK3(Kin.Dom.1-N-terminal) DiscoveRx kinase panel; details: Compound concentration 1.0 uM
# [33] = target: Serine/threonine-protein kinase 36 (Homo sapiens) (UniProt Q9NRP7); test: STK36 DiscoveRx kinase panel; details: Compound concentration 1.0 uM
# [34] = target: Serine/threonine-protein kinase WNK3 (Homo sapiens) (UniProt Q9BYP7); test: WNK3 DiscoveRx kinase panel; details: Compound concentration 1.0 uM
# [35] = target: Activin receptor type-1 (Homo sapiens) (UniProt Q04771); test: ACVR1 DiscoveRx kinase panel; details: Compound concentration 1.0 uM
# [36] = target: Maternal embryonic leucine zipper kinase (Homo sapiens) (UniProt Q14680); test: MELK DiscoveRx kinase panel; details: Compound concentration 1.0 uM
# [37] = target: Phosphatidylinositol 5-phosphate 4-kinase type-2 gamma (Homo sapiens) (UniProt Q8TBX8); test: PIP5K2C DiscoveRx kinase panel; details: Compound concentration 1.0 uM
# [38] = target: STE20/SPS1-related proline-alanine-rich protein kinase (Homo sapiens) (UniProt Q9UEW8); test: STK39 DiscoveRx kinase panel; details: Compound concentration 1.0 uM
# [39] = target: Sodium-dependent dopamine transporter (Homo sapiens, UniProt Q01959); test: GPCRScan assay: inhibition of DAT; set-up: radioligand conc. used [nm] 3.6 – 16.0, parental cells stable HEK
# [40] = target: Mitogen-activated protein kinase kinase kinase 3 (Homo sapiens) (UniProt Q99759); test: MAP3K3 DiscoveRx kinase panel; details: Compound concentration 1.0 uM
# [41] = target: Cyclin-dependent kinase 19 (Homo sapiens) (UniProt Q9BWU1); test: CDK11 DiscoveRx kinase panel; details: Compound concentration 1.0 uM
# [42] = target: Megakaryocyte-associated tyrosine-protein kinase (Homo sapiens) (UniProt P42679); test: CTK DiscoveRx kinase panel; details: Compound concentration 1.0 uM
# [43] = target: Wee1-like protein kinase 2 (Homo sapiens) (UniProt P0C1S8); test: WEE2 DiscoveRx kinase panel; details: Compound concentration 1.0 uM
# [44] = target: MAP/microtubule affinity-regulating kinase 4 (Homo sapiens) (UniProt Q96L34); test: MARK4 DiscoveRx kinase panel; details: Compound concentration 1.0 uM
# [45] = target: Ribosomal protein S6 kinase alpha-1 (Homo sapiens) (UniProt Q15418); test: RSK1(Kin.Dom.1-N-terminal) DiscoveRx kinase panel; details: Compound concentration 1.0 uM
# [46] = target: Ribosomal protein S6 kinase alpha-6 (Homo sapiens) (UniProt Q9UK32); test: RSK4(Kin.Dom.1-N-terminal) DiscoveRx kinase panel; details: Compound concentration 1.0 uM
# [47] = target: Ephrin type-A receptor 1 (Homo sapiens) (UniProt P21709); test: EPHA1 DiscoveRx kinase panel; details: Compound concentration 1.0 uM
# Alpha-2C adrenergic receptor, sequence (P18825 whole entry): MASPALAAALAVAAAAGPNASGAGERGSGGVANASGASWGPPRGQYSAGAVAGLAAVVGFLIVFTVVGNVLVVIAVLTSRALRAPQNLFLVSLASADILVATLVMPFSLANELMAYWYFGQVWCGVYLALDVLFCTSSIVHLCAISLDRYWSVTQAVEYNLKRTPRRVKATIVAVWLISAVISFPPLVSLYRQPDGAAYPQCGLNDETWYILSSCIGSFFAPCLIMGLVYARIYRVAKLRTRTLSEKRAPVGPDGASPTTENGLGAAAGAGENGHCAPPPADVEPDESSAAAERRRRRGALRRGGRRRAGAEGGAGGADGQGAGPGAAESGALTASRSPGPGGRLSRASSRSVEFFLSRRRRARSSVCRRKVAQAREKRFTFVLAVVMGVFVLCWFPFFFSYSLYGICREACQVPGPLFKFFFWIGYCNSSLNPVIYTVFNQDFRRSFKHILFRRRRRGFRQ
# Ribosomal protein S6 kinase alpha-6 (Homo sapiens), sequence (Q9UK32 whole entry): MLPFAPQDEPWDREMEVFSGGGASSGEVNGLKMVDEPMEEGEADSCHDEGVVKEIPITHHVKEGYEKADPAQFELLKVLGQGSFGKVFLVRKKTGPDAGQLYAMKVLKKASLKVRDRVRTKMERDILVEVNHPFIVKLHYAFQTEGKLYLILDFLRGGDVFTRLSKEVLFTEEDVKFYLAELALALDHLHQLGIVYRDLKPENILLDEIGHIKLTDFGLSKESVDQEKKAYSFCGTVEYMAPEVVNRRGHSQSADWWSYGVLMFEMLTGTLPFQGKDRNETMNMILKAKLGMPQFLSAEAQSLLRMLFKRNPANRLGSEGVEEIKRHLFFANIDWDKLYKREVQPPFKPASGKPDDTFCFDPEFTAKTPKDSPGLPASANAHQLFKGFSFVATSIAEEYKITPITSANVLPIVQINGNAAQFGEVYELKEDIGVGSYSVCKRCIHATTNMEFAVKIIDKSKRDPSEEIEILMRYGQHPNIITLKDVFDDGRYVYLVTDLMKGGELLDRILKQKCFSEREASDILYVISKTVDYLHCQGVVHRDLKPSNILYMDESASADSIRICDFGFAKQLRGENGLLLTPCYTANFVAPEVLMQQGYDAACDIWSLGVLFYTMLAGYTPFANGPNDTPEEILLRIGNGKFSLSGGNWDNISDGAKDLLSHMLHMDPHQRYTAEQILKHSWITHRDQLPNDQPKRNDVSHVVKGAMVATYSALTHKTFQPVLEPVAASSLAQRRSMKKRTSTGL
# Sodium-dependent dopamine transporter, sequence (Q01959 whole entry): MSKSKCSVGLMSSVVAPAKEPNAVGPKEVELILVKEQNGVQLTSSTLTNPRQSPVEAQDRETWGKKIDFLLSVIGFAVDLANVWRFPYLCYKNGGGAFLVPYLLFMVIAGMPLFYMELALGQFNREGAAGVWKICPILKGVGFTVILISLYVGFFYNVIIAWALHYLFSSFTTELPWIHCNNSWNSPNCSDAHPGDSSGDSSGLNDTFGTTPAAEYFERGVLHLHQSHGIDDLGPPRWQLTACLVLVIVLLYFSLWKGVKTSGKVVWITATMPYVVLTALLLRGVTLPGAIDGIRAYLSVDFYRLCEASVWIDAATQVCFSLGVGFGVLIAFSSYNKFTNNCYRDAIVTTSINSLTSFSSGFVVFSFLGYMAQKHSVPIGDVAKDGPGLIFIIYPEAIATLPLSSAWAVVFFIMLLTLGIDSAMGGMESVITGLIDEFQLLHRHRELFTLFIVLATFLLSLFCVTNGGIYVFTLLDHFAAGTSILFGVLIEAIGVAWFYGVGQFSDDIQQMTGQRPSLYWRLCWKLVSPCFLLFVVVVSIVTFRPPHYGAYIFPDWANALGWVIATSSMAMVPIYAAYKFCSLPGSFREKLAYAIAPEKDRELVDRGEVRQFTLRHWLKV
# Phosphatidylinositol 5-phosphate 4-kinase type-2 gamma (Homo sapiens), sequence (Q8TBX8 whole entry): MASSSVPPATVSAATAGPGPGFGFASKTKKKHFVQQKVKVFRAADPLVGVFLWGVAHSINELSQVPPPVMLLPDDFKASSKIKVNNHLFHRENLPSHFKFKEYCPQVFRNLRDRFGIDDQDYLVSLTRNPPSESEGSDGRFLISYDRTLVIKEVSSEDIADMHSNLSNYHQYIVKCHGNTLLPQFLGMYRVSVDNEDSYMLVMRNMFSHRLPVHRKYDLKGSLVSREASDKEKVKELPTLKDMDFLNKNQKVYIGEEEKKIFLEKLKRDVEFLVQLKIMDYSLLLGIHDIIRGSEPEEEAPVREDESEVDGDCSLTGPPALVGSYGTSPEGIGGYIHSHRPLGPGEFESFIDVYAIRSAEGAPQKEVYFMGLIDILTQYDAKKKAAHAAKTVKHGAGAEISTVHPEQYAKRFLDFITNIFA
# Proto-oncogene tyrosine-protein kinase receptor Ret (Homo sapiens), sequence (P07949 whole entry): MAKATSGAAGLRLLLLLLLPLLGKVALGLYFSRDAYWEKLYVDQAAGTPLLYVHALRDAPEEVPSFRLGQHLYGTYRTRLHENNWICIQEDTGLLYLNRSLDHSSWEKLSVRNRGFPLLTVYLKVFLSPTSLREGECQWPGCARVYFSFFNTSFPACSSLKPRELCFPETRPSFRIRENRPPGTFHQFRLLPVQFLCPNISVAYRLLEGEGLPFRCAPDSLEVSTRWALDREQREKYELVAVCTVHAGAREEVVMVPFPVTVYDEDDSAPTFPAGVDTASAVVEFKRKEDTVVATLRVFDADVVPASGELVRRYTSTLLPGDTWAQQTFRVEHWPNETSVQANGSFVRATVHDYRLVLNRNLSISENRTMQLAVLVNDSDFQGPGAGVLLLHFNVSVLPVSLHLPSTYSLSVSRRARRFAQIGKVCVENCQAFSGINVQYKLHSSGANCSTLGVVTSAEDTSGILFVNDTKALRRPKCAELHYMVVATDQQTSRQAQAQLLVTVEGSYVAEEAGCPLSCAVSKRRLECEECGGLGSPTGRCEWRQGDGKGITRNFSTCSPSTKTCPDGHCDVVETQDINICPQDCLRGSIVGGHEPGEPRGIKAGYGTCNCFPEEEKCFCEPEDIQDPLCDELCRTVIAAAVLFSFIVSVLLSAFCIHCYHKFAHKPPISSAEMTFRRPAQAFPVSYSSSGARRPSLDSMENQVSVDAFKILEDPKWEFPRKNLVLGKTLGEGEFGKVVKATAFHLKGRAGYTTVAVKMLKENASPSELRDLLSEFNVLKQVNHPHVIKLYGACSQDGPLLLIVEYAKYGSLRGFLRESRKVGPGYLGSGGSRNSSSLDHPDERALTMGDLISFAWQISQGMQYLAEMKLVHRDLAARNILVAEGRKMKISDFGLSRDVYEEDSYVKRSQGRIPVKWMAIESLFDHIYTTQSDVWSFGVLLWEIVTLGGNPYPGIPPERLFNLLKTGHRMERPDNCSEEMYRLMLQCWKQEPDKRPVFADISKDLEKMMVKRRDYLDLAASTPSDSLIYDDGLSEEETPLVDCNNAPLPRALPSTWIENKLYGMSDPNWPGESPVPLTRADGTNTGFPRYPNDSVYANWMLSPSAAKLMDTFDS
# Protein kinase C epsilon type (Homo sapiens), sequence (Q02156 whole entry): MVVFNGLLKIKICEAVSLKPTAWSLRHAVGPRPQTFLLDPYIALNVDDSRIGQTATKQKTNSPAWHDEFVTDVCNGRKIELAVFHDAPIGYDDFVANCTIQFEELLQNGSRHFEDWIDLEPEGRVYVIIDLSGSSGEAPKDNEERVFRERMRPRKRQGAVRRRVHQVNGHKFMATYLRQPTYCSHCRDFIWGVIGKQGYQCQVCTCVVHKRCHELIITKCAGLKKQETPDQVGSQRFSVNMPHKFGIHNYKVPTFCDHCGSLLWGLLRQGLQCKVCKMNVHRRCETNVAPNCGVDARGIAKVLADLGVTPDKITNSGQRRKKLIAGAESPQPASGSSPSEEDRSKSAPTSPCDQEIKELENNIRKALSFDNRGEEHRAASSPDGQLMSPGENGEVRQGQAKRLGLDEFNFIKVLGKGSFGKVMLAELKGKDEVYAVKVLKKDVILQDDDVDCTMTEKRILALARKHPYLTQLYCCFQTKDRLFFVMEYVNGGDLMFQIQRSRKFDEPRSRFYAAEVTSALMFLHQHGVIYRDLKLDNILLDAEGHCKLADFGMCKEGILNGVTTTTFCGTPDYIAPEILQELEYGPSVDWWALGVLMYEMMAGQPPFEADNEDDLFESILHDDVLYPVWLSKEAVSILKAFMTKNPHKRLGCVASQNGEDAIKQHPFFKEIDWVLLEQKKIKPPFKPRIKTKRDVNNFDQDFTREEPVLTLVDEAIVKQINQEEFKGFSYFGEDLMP
# MAO-A, sequence (P21397 whole entry): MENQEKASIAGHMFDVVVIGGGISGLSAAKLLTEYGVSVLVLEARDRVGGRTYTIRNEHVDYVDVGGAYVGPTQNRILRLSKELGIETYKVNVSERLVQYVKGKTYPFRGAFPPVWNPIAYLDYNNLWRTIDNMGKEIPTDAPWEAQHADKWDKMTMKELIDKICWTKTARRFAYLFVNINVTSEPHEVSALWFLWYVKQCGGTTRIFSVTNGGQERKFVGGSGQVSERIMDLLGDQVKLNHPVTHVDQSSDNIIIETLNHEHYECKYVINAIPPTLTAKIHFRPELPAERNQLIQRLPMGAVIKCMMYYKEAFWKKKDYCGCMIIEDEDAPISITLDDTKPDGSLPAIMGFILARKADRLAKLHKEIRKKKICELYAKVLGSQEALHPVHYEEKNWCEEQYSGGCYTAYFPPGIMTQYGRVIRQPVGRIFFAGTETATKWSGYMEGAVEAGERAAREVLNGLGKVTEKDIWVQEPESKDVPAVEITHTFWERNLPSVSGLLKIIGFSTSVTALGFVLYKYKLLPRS
# Cysteinyl leukotriene receptor 1 (Homo sapiens), sequence (Q9Y271 whole entry): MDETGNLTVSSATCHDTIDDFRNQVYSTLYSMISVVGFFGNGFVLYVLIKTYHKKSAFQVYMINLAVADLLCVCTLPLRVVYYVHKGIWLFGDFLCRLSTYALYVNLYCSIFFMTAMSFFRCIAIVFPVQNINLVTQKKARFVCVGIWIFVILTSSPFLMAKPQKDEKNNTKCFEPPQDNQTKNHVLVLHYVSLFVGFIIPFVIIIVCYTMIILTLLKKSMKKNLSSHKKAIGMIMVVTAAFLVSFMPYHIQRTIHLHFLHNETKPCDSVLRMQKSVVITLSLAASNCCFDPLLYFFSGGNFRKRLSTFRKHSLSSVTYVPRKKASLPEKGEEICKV
compound,measurement,setting,value
COc1cnccc1Nc1nc(-c2nn(Cc3c(F)cc(OCCO)cc3F)c3ccccc23)ncc1OC,residual activity,[1],100%
same,residual activity,[2],100%
same,residual activity,[3],92%
same,residual activity,[4],87%
same,residual activity,[5],83%
same,residual activity,[6],70%
same,residual activity,[7],76%
same,Ki,[8],> 10 µM
same,pKi,[8],< 5
same,inhibition,[9],-0.37%
same,residual activity,[10],97%
same,inhibition,[11],4%
same,inhibition,[12],11%
same,residual activity,[13],100%
same,residual activity,[14],100%
same,residual activity,[15],100%
same,residual activity,[16],100%
same,"inhibition at 60 min, 10 µM",[17],7% (not active)
same,inhibition,[18],31%
same,residual activity,[19],93%
same,residual activity,[20],100%
same,residual activity,[21],85%
same,inhibition,[22],1%
same,residual activity,[23],78%
same,residual activity,[24],100%
same,inhibition,[25],32%
same,inhibition,[26],-4.25%
same,residual activity,[27],100%
same,residual activity,[28],100%
same,residual activity,[29],100%
same,inhibition,[30],1.96%
same,residual activity,[31],88%
same,residual activity,[32],80%
same,residual activity,[33],68%
same,residual activity,[34],87%
same,residual activity,[35],98%
same,residual activity,[36],84%
same,residual activity,[37],100%
same,residual activity,[38],97%
same,pKi,[39],< 5
same,Ki,[39]; read-out: Ki,> 10 µM
same,residual activity,[40],95%
same,residual activity,[41],78%
same,residual activity,[42],97%
same,residual activity,[43],97%
same,residual activity,[44],100%
same,residual activity,[45],80%
same,residual activity,[46],100%
same,residual activity,[47],65%
